Laboratory results from patent publication US20200268864A1, “CANCER VACCINE COMPOSITIONS AND METHODS FOR USING SAME TO TREAT CANCER” (Dana-Farber Cancer Institute, Inc., priority 2017, published 2020).
Entries after “also recorded” stand apart in the source; their conditions may differ.

Key:
[1] = tested on: PPM tumors (Trp53−/−; Pten−/−; c-Myc); experiment: Orthotopic PPM tumor growth (bioluminescence); details: mouse, in vivo
Experimental: All animal experiments described in this study were performed according to the animal protocols approved by the DFCI Institutional Animal Care and Use Committee. Brca1^loxP/loxP [FVB/N] mice, bearing loxP sites in introns 4 and 13 of the Brca1 gene, and Trp53^loxP/loxP[FVB/N] mice bearing loxP in introns 2 and 10 of the p53 gene, were obtained from Dr. Jos Jonkers's laboratory (Netherlands Cancer Institute, Amsterdam, The Netherlands). These mice were intercrossed through multiple generations to create a colony of homozygous Trp53^loxP/loxP/Brca1^loxP/loxP double conditional knockout mice. Ovaries were harvested from 8-week-old female Trp53^loxP/loxP/Brca1^loxP/loxP mice. The ovaries were washed twice with phosphate-buffered and incubated in DMEM/F12 (Ham's) medium containing collagenase and dispase (stem cell technologies) for 40 min at 37° C. […]
Single cells were obtained by digestion of primary ovarian tumors in collagenase buffer and then cultured in MOT media (DMEM/F12, 0.6% FBS, 10 ng/ml EGF, hydrocortisone 1 μg/ml, cholera toxin 1 ng/ml, 100 μg/ml penicillin-streptomycin, 5 μM Y27632). […] The endpoints were determined by tumor burden and ascites. […]

PBM tumor-bearing mice = experiment: Cytokine array of plasma/sera; format: in vivo, mouse; details: day 2 of treatment
Experimental: (§1) Blood was obtained by retro-orbital sampling at intermediate time points or experimental end points. Blood cells and plasma/sera were separated by centrifugation at 1,500×g for 5 min. at 4° C. Plasmaisera were sent out to Eve Technologies for cytokine array analysis (Chemokine Array 31-Plex and Mouse Procarta IFN 2-plex Featured Assay). Plasma/sera were applied to ELISA according to manufacturer's instructions. For in vitro experiments, cell culture supernatants were obtained by centrifugation at 1,500×g for 5 min. at 4° C. to remove all debris and cells, and were then subjected to ELISA analysis. IFN-β was detected using the LEGEND MAX™ Mouse IFN-β ELISA Kit (BioLegend).

[2] = tested on: STING pathway in BMDCs co-cultured with PPM cells; experiment: Co-culture of BMDCs with olaparib-treated PPM tumor cells; format: cell-based, mouse
Experimental: as §1
Bone marrow cells were isolated from FVB/NJ mice and cultured in RPMI-1640 containing 10% FBS and 20 ng/ml GM-CSF. BMDCs (bone marrow derived dendritic cells) were harvested for in vitro co-culture assay on day 7 to day 10. About 3×10^5 PBM or PPM tumor cells were cultured in a 6-well plate for 24 hr. and then treated with DMSO or olaparib. After 24 hr incubation with DMSO, olaparib, or olaparib in combination with other drugs (cell cycle inhibitor or apoptosis inhibitor), drugs were removed and tumor cells were washed twice with PBS. BMDCs were added and co-cultured with PBM or PPM cells at a ratio of 1:1 in 1.5 ml culture media in the presence of GM-CSF (20 ng/ml) and lipofectamine (2 μl) for 24 hr. […]

PBM cells = experiment: Cell death of PBM cells in culture; format: cell-based, mouse; details: 2.5 uM for 24 hours

O=C(c1cc(Cc2n[nH]c(=O)c3ccccc23)ccc1F)N1CCN(C(=O)C2CC2)CC1 [olaparib, Olaparib]
progression of Brca-proficient PPM tumors [1]: little effect and not
plasma/sera cytokine levels (CXCL9, CXCL10, IFNβ and others) (PBM tumor-bearing mice): significant increase; also recorded: increased levels of multiple cytokines
plasma/sera cytokine levels (CXCL9, CXCL10, IFNβ and others) (PBM tumor-bearing mice; listed as Olaparib): changes on the levels of various cytokines
STING-dependent activation of BMDCs (IFNβ and CXCL10 expression) [2]: not observed
cell death in PBM cells (PBM cells): did not induce substantial cell death
